# Columns and labels:
# [1] = system: S. aureus USA300 LAC::lux; assay: Bacterial growth curve kinetics, S. aureus broth cultures; type: cell-based; details: 10, 100 and 1,000 μg/mL; 10 hours; vs vehicle
# [2] = system: TNF; assay: Serum TNF levels after S. aureus skin inoculation; type: in vivo, mice; details: days 1 and 3; vs untreated
# Method: (§1) Serum IL-1β and TNF levels. Serum IL-1β and TNF protein levels (pg/mL) were measured from serum collected on days 1 and 3 after S. aureus skin inoculation±Q-VD-OPH treatment using Bio-Plex protein assays and normalized to total protein, according to the manufacturer's recommendations (Bio-Rad).
# [3] = system: P. aeruginosa strain Xen41; assay: Bacterial growth curve kinetics, P. aeruginosa broth cultures; type: cell-based; details: 10, 100 and 1,000 μg/mL; vs vehicle
# [4] = target: Streptopain (speB) (Streptococcus pyogenes, UniProt P0C0J0); type: biochemical, S. pyogenes
# [5] = system: mouse epithelial keratinocytes; assay: Mouse epithelial keratinocyte culture (qRT-PCR, immunoblot)
# [6] = system: S. pyogenes strain Xen20; type: in vivo; details: WT C57BL/6 mice; single dose at 4 hours; vs untreated
# [7] = system: BMDMs; assay: BMDM cultures with live S. aureus ± caspase inhibitors; details: Q-VD-OPH 10 μg/mL, live S. aureus 6 hours
# [8] = system: mouse neutrophils; assay: Neutrophil cultures with live S. aureus ± caspase inhibitors; details: Q-VD-OPH 10 μg/mL, live S. aureus 6 hours
# [9] = system: neogenic hair follicles; assay: Wound Induced Hair Neogenesis (WIHN) assay; type: in vivo, mice
# Method: Wound Induced Hair Neogenesis (WIHN) Assay. All in vivo experimental surgical procedures were performed as previously characterized ^1,2,6-8. In short, after exposure to vaporizing anesthesia (Baxter, Isoflurane) the dorsal side of male and female 3-week-old (21 days) mice were shaved at approximately 8-10 g of weight. Using surgical scissors, approximately 1.26 cm^2×1.25 cm^2 of skin was excised creating wounds deep into the fascia. At 3 days post-wounding, a single dose (50 μl) of 100 μg/mL high molecular weight (HMW) polyinosinic-polycytidylic acid (Poly (I:C)) (Invivogen, tlrl-pic) was administered underneath the scab site via injection in both wild-type and transgenic mice as previously described^2,8. For functional experiments characterizing IL-36 on WIHN, a single dose (50 μl) of 1 μg/mL recombinant mouse IL-36α protein (R&D Systems, 7059-ML/CF) was injected underneath the scab site at 7 days post-wounding. For rescue experiments using the small molecule, broad spectrum pan-caspase inhibitor, 20 ul of 5 mg/mL Q-VD-OPh (in DMSO) was diluted 130 μL of phosphate-buffered saline (PBS) (1.33 mM final concentration) and injected intraperitoneally in mice 24 hours prior to wounding and approximately 10 days after wounding (scab detachment).
# Immunofluorescence, immunocytochemistry, and immunohistochemistry.
# [10] = system: ASC specks; assay: ASC speck formation in ASC-Citrine mice (in vivo FLI, PuLSA assay)
# [11] = system: S. pyogenes strain Xen20; type: cell-based; details: 10, 100 and 1,000 μg/mL; vs vehicle
# [12] = system: P. aeruginosa strain Xen41; assay: P. aeruginosa skin infection model; type: in vivo; details: WT C57BL/6 mice; treatment at 4 hours; vs untreated
# [13] = target: T1, Staphopain A (sspP) (Staphylococcus aureus, UniProt P81297); assay: Protease activity assays and protein blot, Staphopain A; type: biochemical, S. aureus
# T1 construct: purchased CUSABIO
# [14] = target: T2, Staphopain B (sspB) (Staphylococcus aureus, UniProt P0C1S6); assay: Protease activity assays and protein blot, Staphopain B; type: biochemical, S. aureus
# T2 construct: purchased CUSABIO
# [15] = system: IL-1β; assay: Serum IL-1β levels after S. aureus skin inoculation; type: in vivo, mice; details: days 1 and 3
# Method: as §1
# [16] = system: pMLKL, MLKL, ICAD; assay: Western blot analysis of infected skin; type: in vivo, mice
# [17] = Emricasan 9 μg/mL, no significant differences vs no treatment
# Sequence of Streptopain (speB) (P0C0J0 146-398 limits assumed): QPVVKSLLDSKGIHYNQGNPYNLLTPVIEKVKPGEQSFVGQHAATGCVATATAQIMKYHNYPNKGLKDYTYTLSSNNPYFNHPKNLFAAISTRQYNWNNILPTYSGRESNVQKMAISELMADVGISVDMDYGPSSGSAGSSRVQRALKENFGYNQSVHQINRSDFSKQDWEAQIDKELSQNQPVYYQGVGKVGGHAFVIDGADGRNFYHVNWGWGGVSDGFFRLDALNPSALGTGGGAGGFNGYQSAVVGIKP
# T1 sequence (P81297 215-388): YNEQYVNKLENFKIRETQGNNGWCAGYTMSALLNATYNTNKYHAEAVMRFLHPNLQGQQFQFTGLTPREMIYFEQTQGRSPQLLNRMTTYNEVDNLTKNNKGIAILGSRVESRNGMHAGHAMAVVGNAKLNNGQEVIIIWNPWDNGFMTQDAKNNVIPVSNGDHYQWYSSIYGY
# T2 sequence (P0C1S6 220-393): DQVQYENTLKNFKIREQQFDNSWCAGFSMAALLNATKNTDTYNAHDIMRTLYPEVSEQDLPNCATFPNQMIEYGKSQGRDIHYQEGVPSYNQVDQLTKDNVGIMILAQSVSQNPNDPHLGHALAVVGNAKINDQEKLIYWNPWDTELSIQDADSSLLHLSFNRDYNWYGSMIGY
smiles,measurement,setting,value
"CC(C)[C@H](NC(=O)c1ccc2ccccc2n1)C(=O)N[C@@H](CC(=O)O)C(=O)COc1c(F)cccc1F [Q-VD-OPH, Quinoline-val-asp-difluorophenoxymethyl ketone]","in vitro absorbance, bioluminescence and CFU (direct antibacterial activity)",[1],"no differences in in vitro absorbance, bioluminescence and CFU"
same,serum TNF protein levels,[2],increased serum TNF protein levels
same,in vitro absorbance and bioluminescence,[3],no differences in in vitro absorbance and bioluminescence
same,physical conformational changes or degradation of speB (protein blot),[4]; 2 hours at 37° C.,did not induce any physical conformational changes or cause degradation
same,activity of speB on gelatinase activity or elastin proteolysis,[4]; 20 hours,did not affect the activity
same,IL-36 receptor (IL36r) expression,[5]; 48 hrs treatment,not detected
same,IL-36 receptor antagonist (IL-36m) protein or mRNA levels,[5]; 48 hrs treatment,No differences
same,IL-36α mRNA,[5]; 48 hrs treatment,higher levels of IL-36α mRNA and protein
same,Tlr3 expression,[5]; 48 hrs treatment,again elevated
same,caspase gene mRNA (inflammatory caspases 1 and 4),[5]; 48 hrs treatment,compensatory mRNA increases of caspase genes
same,IL-36α protein (whole-cell lysates),[5]; mouse epithelial keratinocytes,higher levels of IL-36α mRNA and protein
same,bacterial burden (in vivo BLI),[6],rapidly reduced bacterial burden
same,skin lesion sizes,[6],substantially decreased skin lesion sizes
same,necroptosis (western blot for pMLKL and MLKL),[7],necroptosis was increased
same,percentages of TNF+ BMDMs,[7]; Emricasan 9 μg/mL,33.53%
same,viable cells (Zombie UV negative cells),[7]; [17],~80%
same,necroptosis (western blot for pMLKL and MLKL),[8],necroptosis was increased
same,percentages of TNF+ neutrophils,[8]; Emricasan 9 μg/mL,25.47%
same,viable cells (Zombie UV negative cells),[8]; [17],~50%
same,WIHN,[9]; Il36r^−/− mice treated with Q-VD-OPh,do not
same,WIHN,"[9]; wild-type mice, Q-VD-OPh 1.33 mM i.p. 24 hours prior to and ~10 days after wounding, vs vehicle",more WIHN
same,IL-36α in the epidermis of re-epithelialized wounds,"[9]; wild-type mice, Q-VD-OPh i.p., vs vehicle",higher levels of IL-36α in the epidermis of re-epithelialized wounds
same,in vivo ASC speck formation (in vivo FLI signals),"[10]; ASC-Citrine mice, 6 hours following Q-VD-OPH administration",virtually inhibited all in vivo ASC speck formation
same,percentage of total ASC-Citrine expression in live cells,"[10]; infected skin, day 1, treated vs untreated",not significantly different
same,percentage of cells with ASC-Specks (PuLSA assay),"[10]; infected skin, day 1, vs untreated",substantially reduced percentage of cells with ASC-Specks
same,in vitro absorbance and bioluminescence,[11],no differences in in vitro absorbance and bioluminescence
same,bacterial burden (in vivo BLI),[12],modest but significantly decreased
same,skin lesion sizes,[12],modest but significantly decreased skin lesion sizes
same,physical conformational changes or degradation of sspP (protein blot),[13]; 2 hours at 37° C.,did not induce any physical conformational changes or cause degradation
same,activity of sspP on gelatinase activity or elastin proteolysis,"[13]; Q-VD-OPH 10 μg/mL, 20 hours",did not affect the activity
same,physical conformational changes or degradation of sspB (protein blot),[14]; 2 hours at 37° C.,did not induce any physical conformational changes or cause degradation
same,activity of sspB on gelatinase activity or elastin proteolysis,"[14]; Q-VD-OPH 10 μg/mL, 20 hours",did not affect the activity
same,serum levels of IL-1β,[15],decreased serum levels of IL-1β
same,necroptosis (pMLKL and MLKL expression),"[16]; TNF^−/− mice, day 1, vs untreated or Q-VD-OPH treated WT mice",reduced necroptosis
same,apoptosis (ICAD),"[16]; TNF^−/− mice, infected skin day 1",reduced apoptosis
same,apoptosis (ICAD),"[16]; WT mice, infected skin day 1",reduced apoptosis
same,"necroptosis (pMLKL, MLKL)","[16]; WT mice, infected skin day 1",increases necroptosis
